For the assay, the system named is LPS-induced endotoxic shock. Put plainly: LPS-induced endotoxic shock in mice (death rate after LPS injection). Type of assay: in vivo, Balb/c mice. On the procedure: The pharmacological activity of UK 114 and of the peptides of the invention has been studied on the murine model of LPS-induced shock, as reported in the following Example.
Balb/c mice 6-8 weeks old were treated i.p. with 30 mcg of UK114 in 100 μl PBS (group B) or with 4 mcg of peptide 76-90 (group C) 24 hours and one hour before the administration of 500 mcg of LPS. A control group of mice (group A) was tretated with 100 μl PBS according to the same protocol used for groups C and B.
A further group was treated only with UK114 one hour after the administration of LPS (group D). This experimental approach more closely resembles the clinical practice where it is difficult to intervene prophylactically.
The death rate of the animals in each group was recorded every 12 hours up to the third day from the LPS injection.

The results in this text go back to patent publication US20040180835A1, “Use of the protein uk114 or of fragments thereof for the treatment and prevention of the endotoxic shock” (priority 2001, published 2004).

Marks after values point to notes of the source that are not given here. No end group written: not given here.

Turning to VVKATVLLADINDFS [pep. 76-90], under “prophylactic i.p. treatment 24 hours and one hour before 500 mcg LPS, UK114 30 mcg, peptide 76-90 4 mcg, 50 mice per group, PBS control 40/50 (80%)”, the “Death-rate (at 72 h)” value is listed as 25/50(50%)***. In addition, for the setting “prophylactic treatment, 72 hours post LPS, vs PBS control group”, the “Protection from the lethal effects of LPS” value is on record as “clearly protected from the lethal effects of LPS”.
